Test results taken from PubChem BioAssay AID330 (DTP/NCI, 2004).
Where “and” joins values, the source holds several entries; their conditions need not be identical. Equal entries are not always repeated. Toxic doses and inconclusive results are not listed. Rule for the calls: active = survival T/C of 150% or more; inactive = T/C below 125% in these data.

Test system: P388 leukemia ip, CD2F1 mice, survival T/C
Assay: NCI In Vivo Anticancer Drug Screen. Data for tumor model P388 Leukemia (intraperitoneal) in CD2F1 (CDF1) mice
Settings: endpoint: median survival time, higher = longer survival
How it was run: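 Mice carrying the transplanted tumor received test compound or vehicle. Survival was recorded in each group, and the value is the treated-group measurement divided by that of the vehicle-treated control group.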

[1] = dose: 15.0 mg/kg/injection, schedule: Q01DX005 (ip), vehicle: saline with Tween-80
[2] = dose: 30.0 mg/kg/injection, schedule: Q01DX005 (ip), vehicle: saline with Tween-80
[3] = dose: 60.0 mg/kg/injection, schedule: Q01DX005 (ip), vehicle: saline with Tween-80
[4] = dose: 50.0 mg/kg/injection, schedule: Q01DX005 (ip), vehicle: saline
[5] = dose: 25.0 mg/kg/injection, schedule: Q01DX009 (ip), vehicle: saline with Tween-80
[6] = dose: 50.0 mg/kg/injection, schedule: Q01DX009 (ip), vehicle: saline with Tween-80
[7] = dose: 100.0 mg/kg/injection, schedule: Q01DX009 (ip), vehicle: saline with Tween-80
[8] = dose: 200.0 mg/kg/injection, schedule: Q01DX009 (ip), vehicle: saline with Tween-80
[9] = dose: 100.0 mg/kg/injection, schedule: Q01DX001 (ip), vehicle: saline with Tween-80
[10] = dose: 200.0 mg/kg/injection, schedule: Q01DX001 (ip), vehicle: saline with Tween-80
[11] = dose: 100.0 mg/kg/injection, schedule: Q04DX003 (ip), vehicle: Klucel (hydroxypropylcellulose) (HPC)
[12] = dose: 200.0 mg/kg/injection, schedule: Q04DX003 (ip), vehicle: Klucel (hydroxypropylcellulose) (HPC)
[13] = dose: 400.0 mg/kg/injection, schedule: Q04DX003 (ip), vehicle: Klucel (hydroxypropylcellulose) (HPC)
[14] = dose: 60.0 mg/kg/injection, schedule: Q01DX005 (ip), vehicle: Klucel (hydroxypropylcellulose) (HPC)
[15] = dose: 120.0 mg/kg/injection, schedule: Q01DX005 (ip), vehicle: Klucel (hydroxypropylcellulose) (HPC)
[16] = dose: 240.0 mg/kg/injection, schedule: Q01DX005 (ip), vehicle: Klucel (hydroxypropylcellulose) (HPC)

Measured: T/C

CCOC(=O)/C(C#N)=C/c1ccc(C)o1
inactive: [1] 99 % of control | [2] 100 % of control | [3] 100 % of control and 101 % of control

Cc1cccc2c1Oc1ccccc1C2NC(=O)c1ccccc1 (stereo not given)
inactive: dose: 12.5 mg/kg/injection, schedule: Q01DX005 (ip), vehicle: saline with Tween-80 86 % of control | dose: 25.0 mg/kg/injection, schedule: Q01DX005 (ip), vehicle: saline with Tween-80 89 % of control | dose: 50.0 mg/kg/injection, schedule: Q01DX005 (ip), vehicle: saline with Tween-80 86 % of control and 88 % of control | dose: 200.0 mg/kg/injection, schedule: Q01DX005 (ip), vehicle: saline with Tween-80 87 % of control

CN(C)CCCNC(=O)c1ccc2c(c1O)C(=O)c1ccccc1C2=O
inactive: dose: 12.5 mg/kg/injection, schedule: Q01DX005 (ip), vehicle: saline 105 % of control | dose: 25.0 mg/kg/injection, schedule: Q01DX005 (ip), vehicle: saline 109 % of control | [4] 114 % of control

Clc1ccc(N=Cc2ccc(C=Nc3ccc(Cl)c(Cl)c3)cc2)cc1Cl
inactive: [5] 103 % of control | [6] 90 % of control | [7] 88 % of control | [8] 94 % of control

COc1ccc2nc(-n3[nH]c(C)c(-c4cc(C)nn4-c4ccccc4)c3=O)cc(C)c2c1
inactive: [9] 98 % of control | [10] 91 % of control

COC1CC(O)(CC#N)C(OC(=O)c2ccc([N+](=O)[O-])cc2)C(COC(=O)c2ccc([N+](=O)[O-])cc2)O1 (stereo not given)
inactive: [11] 94 % of control | [12] 101 % of control | [13] 104 % of control

COC(=O)c1ccccc1S(=O)(=O)N1CCOCC1
inactive: dose: 50.0 mg/kg/injection, schedule: Q01DX005 (ip), vehicle: Klucel (hydroxypropylcellulose) (HPC) 99 % of control | dose: 100.0 mg/kg/injection, schedule: Q01DX005 (ip), vehicle: Klucel (hydroxypropylcellulose) (HPC) 99 % of control | dose: 200.0 mg/kg/injection, schedule: Q01DX005 (ip), vehicle: Klucel (hydroxypropylcellulose) (HPC) 98 % of control

Fc1ccccc1C(Nc1nncs1)Nc1nncs1
inactive: [1] 95 % of control | [2] 94 % of control | [3] 102 % of control and 104 % of control

CCCCn1c(=S)sc2ccccc21
inactive: dose: 50.0 mg/kg/injection, schedule: Q04DX003 (ip), vehicle: saline with Tween-80 98 % of control | dose: 100.0 mg/kg/injection, schedule: Q04DX003 (ip), vehicle: saline with Tween-80 100 % of control | dose: 200.0 mg/kg/injection, schedule: Q04DX003 (ip), vehicle: saline with Tween-80 104 % of control | dose: 400.0 mg/kg/injection, schedule: Q04DX003 (ip), vehicle: saline with Tween-80 104 % of control

COc1ccc2c(c1)CCC1C2CCC2(C)C1CCC2(O)CCN (stereo not given)
inactive: dose: 25.0 mg/kg/injection, schedule: Q04DX002 (ip), vehicle: saline 100 % of control | dose: 50.0 mg/kg/injection, schedule: Q04DX002 (ip), vehicle: saline 101 % of control | dose: 100.0 mg/kg/injection, schedule: Q04DX002 (ip), vehicle: saline 104 % of control

O=c1c2ccccc2c(-c2ccc(N(CCCl)CCCl)cc2)cn1CCCl
inactive: dose: 25.0 mg/kg/injection, schedule: Q04DX003 (ip), vehicle: Klucel (hydroxypropylcellulose) (HPC) 100 % of control | dose: 50.0 mg/kg/injection, schedule: Q04DX003 (ip), vehicle: Klucel (hydroxypropylcellulose) (HPC) 114 % of control | [11] 107 % of control | [12] 115 % of control | [13] 100 % of control

[Cl][Ge]([Cl])([Cl])[c]1ccccc1
inactive: dose: 50.0 mg/kg/injection, schedule: Q01DX009 (ip), vehicle: saline 100 % of control | dose: 100.0 mg/kg/injection, schedule: Q01DX009 (ip), vehicle: saline 100 % of control

COC1=C(OC)C(=O)C(C(=O)CCCCC(=O)O)=C(C)C1=O
inactive: [3] 107 % of control | dose: 120.0 mg/kg/injection, schedule: Q01DX005 (ip), vehicle: saline with Tween-80 101 % of control | dose: 240.0 mg/kg/injection, schedule: Q01DX005 (ip), vehicle: saline with Tween-80 107 % of control

CCN(CC)Cc1ccccc1CO
inactive: [4] 110 % of control | dose: 100.0 mg/kg/injection, schedule: Q01DX005 (ip), vehicle: saline 106 % of control

Cn1c2c(c(=O)n(C)c1=O)Cc1cc(CC(=O)O)ccc1N2
inactive: [9] 99 % of control | [10] 97 % of control | dose: 400.0 mg/kg/injection, schedule: Q01DX001 (ip), vehicle: saline with Tween-80 96 % of control

N#CC(O)COc1nsnc1N1CCOCC1 (stereo not given)
inactive: dose: 6.25 mg/kg/injection, schedule: Q01DX009 (ip), vehicle: Klucel (hydroxypropylcellulose) (HPC) 108 % of control | dose: 12.5 mg/kg/injection, schedule: Q01DX009 (ip), vehicle: Klucel (hydroxypropylcellulose) (HPC) 106 % of control | dose: 25.0 mg/kg/injection, schedule: Q01DX009 (ip), vehicle: Klucel (hydroxypropylcellulose) (HPC) 105 % of control

CCN(CC)Cc1cc(Nc2nc(/C=C/c3ccccc3)nc3ccccc23)ccc1O
inactive: dose: 50.0 mg/kg/injection, schedule: Q01DX009 (ip), vehicle: distilled water + alcohol 97 % of control | dose: 100.0 mg/kg/injection, schedule: Q01DX009 (ip), vehicle: distilled water + alcohol 100 % of control | dose: 200.0 mg/kg/injection, schedule: Q01DX009 (ip), vehicle: distilled water + alcohol 98 % of control

C[n+]1ccc(/C=C/c2ccccc2)cc1
inactive: [5] 95 % of control | [6] 90 % of control | [7] 95 % of control | [8] 97 % of control

CC1=C(O)CC(/C(C)=C/Cl)OC1=O (stereo not given)
inactive: dose: 100.0 mg/kg/injection, schedule: Q04DX002 (ip), vehicle: Klucel (hydroxypropylcellulose) (HPC) 103 % of control | dose: 200.0 mg/kg/injection, schedule: Q04DX002 (ip), vehicle: Klucel (hydroxypropylcellulose) (HPC) 107 % of control | dose: 400.0 mg/kg/injection, schedule: Q04DX002 (ip), vehicle: Klucel (hydroxypropylcellulose) (HPC) 102 % of control

O=c1oc(-c2cccc(C[n+]3ccccc3)c2)nc2cc(Cl)ccc12
inactive: dose: 15.0 mg/kg/injection, schedule: Q01DX005 (ip), vehicle: saline 98 % of control | dose: 30.0 mg/kg/injection, schedule: Q01DX005 (ip), vehicle: saline 100 % of control | dose: 60.0 mg/kg/injection, schedule: Q01DX005 (ip), vehicle: saline 102 % of control and 110 % of control

O[B]c1nc2ccccc2c2ccccc12
inactive: [14] 105 % of control | [15] 102 % of control | [16] 119 % of control

O=c1oc(-c2ccccc2)cc(N(c2ccccc2)c2ccccc2)c1Cl
inactive: [6] 93 % of control | [7] 93 % of control | [8] 95 % of control

COc1ccc(N(CN2C(=O)CCC2=O)CS(=O)(=O)c2ccc(Cl)cc2)cc1
inactive: [14] 97 % of control | [15] 90 % of control | [16] 100 % of control

C=C1C(=O)OC2/C=C(\C)C(OC(C)=O)C/C=C(\C)CC(OC(=O)/C(=C/CO)CO)C12 (stereo not given)
inactive: dose: 100.0 mg/kg/injection, schedule: Q01DX001 (ip), vehicle: Klucel (hydroxypropylcellulose) (HPC) 99 % of control | dose: 200.0 mg/kg/injection, schedule: Q01DX001 (ip), vehicle: Klucel (hydroxypropylcellulose) (HPC) 99 % of control | dose: 400.0 mg/kg/injection, schedule: Q01DX001 (ip), vehicle: Klucel (hydroxypropylcellulose) (HPC) 123 % of control
